Laboratory results from article PMC12284294 (iScience, 2025).
Entries after “also recorded” stand apart in the source; their conditions may differ. Read-outs that look alike come from different tables or passages of the source. Peptide text beside a SMILES is read from it.

Assays:
[1] = system: human polymorphonuclear granulocytes (PMN; neutrophils); assay type: cell-based
neutrophils = assay type: cell-based, human
[2] = system: MMP-9 release of isolated PMNs; assay type: cell-based, human; details: activator mix 3 μM with MPR peptide, n = 5
FPR1 [3] = biological target: T1, FPR1 (Homo sapiens, UniProt P21462); experiment: cell-based; assay type: binding
T1 construct: expressed in transfected cells; host or cells: HEK293T
T1 sequence (P21462 1-350): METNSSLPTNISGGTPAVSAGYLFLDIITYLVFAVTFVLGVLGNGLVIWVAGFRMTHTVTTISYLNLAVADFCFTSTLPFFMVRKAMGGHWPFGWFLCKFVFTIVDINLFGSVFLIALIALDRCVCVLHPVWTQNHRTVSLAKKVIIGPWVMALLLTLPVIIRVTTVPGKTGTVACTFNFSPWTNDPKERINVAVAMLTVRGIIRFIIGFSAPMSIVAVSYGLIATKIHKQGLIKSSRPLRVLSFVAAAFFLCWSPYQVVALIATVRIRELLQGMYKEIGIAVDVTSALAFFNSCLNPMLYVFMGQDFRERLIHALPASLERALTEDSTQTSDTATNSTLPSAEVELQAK

human FPR2 = assay type: cell-based; details: MPR peptides 30 μM, n = 3
human FPR3 = assay type: cell-based; details: MPR peptides 30 μM, n = 3
[4] = system: neutrophil-like differentiated HL-60 cells (dHL-60); assay type: cell-based, human; details: CV peptides 10 μM, n = 3–5
[5] = system: ERK1/2 phosphorylation via FPR1; experiment: ERK1/2 phosphorylation assay in FPR1-transfected HEK293T cells; assay type: cell-based, human; details: MPR peptide 10 μM, 15 min
Procedure: 300.000 cells were seeded in each well of an uncoated 12-well plate. After 30 min settling time on ice, cells were treated with the respective stimulants and incubated at 37°C, 5% CO2 for 15 min. Cells were subsequently washed with 500 μL PBS and then lysed with 250 μL protein extraction buffer (50 mM Tris-HCl pH 8.0, 5 mM EDTA, 150 mM NaCl, 0.5% [v/v] Triton-X, 5 mM DTT, Roche complete protease inhibitor) for 5 min on ice. Lysates were then placed into protein low bind tubes (Eppendorf) and treated for 20 min in an ultrasonic bath. Samples were centrifuged at 4°C, 12.000 rpm for 20 min to remove debris. Supernatants were collected and stored at −20°C until further use. Protein concentrations were determined using ROTINanoquant in a F[…] multimode reader. Samples were mixed with LDS sample buffer and NuPAGE reduction agent and subsequently heated at 70°C for 10 min 20 μg of each sample were loaded onto a 10% Bis-Tris gel. SDS-PAGE was performed at […] for 40 min. Proteins were blotted onto nitrocellulose membranes using a Wet Tank blotting system at 350 mA for 60 min. Transfer was controlled by Ponceau S staining. Membranes were then blocked with 3% BSA and 0.1% Tween 20 in PBS (PBST) for 60 min. […] Detection of luminescence signals was performed with ECL Prime Kit in a LumiImager. […] Signals of actin staining were measured as described above. […]

FPR1 [6] = biological target: T1, FPR1; experiment: biochemical; assay type: binding
FPR2 = biological target: T2, FPR2 (Homo sapiens, UniProt P25090); experiment: cell-based; assay type: binding
T2 construct: expressed in transfected cells; host or cells: HEK293T
T2 sequence (P25090 1-351): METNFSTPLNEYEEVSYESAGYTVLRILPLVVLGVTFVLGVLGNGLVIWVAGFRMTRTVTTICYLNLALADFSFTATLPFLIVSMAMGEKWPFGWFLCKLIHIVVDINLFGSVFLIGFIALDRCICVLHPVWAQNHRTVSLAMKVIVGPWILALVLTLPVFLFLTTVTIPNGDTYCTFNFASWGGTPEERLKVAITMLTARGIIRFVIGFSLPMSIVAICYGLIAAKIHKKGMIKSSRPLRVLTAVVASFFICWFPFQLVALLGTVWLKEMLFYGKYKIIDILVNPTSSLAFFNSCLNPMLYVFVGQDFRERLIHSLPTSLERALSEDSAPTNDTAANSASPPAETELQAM

FPR3 = biological target: T3, FPR3 (Homo sapiens, UniProt P25089); experiment: cell-based; assay type: binding
T3 construct: expressed in transfected cells; host or cells: HEK293T
T3 sequence (P25089 1-353): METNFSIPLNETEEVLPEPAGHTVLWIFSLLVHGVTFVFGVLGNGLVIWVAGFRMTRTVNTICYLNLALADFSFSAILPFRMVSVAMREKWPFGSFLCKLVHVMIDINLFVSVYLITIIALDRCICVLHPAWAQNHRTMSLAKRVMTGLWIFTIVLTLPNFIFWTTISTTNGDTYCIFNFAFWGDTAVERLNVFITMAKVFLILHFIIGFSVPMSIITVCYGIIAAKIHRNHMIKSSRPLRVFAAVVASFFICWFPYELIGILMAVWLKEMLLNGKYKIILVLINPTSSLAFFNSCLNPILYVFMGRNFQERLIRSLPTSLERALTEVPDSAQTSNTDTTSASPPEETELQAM

FPR1 [7] = biological target: T1, FPR1; assay type: cell-based
FPR1, FPR2, FPR3, PMN = assay type: cell-based, human
[8] = SARS-CoV-2 omicron B.1.1.529 spike pool peptides, 10 µM, PMN, n=6

CC[C@H](C)[C@H](NC(=O)[C@H](Cc1ccc(O)cc1)NC(=O)[C@@H](NC(=O)[C@@H](N)CCC(=O)O)[C@@H](C)O)C(=O)N[C@@H](CCCCN)C(=O)N[C@@H](Cc1c[nH]c2ccccc12)C(=O)N1CCC[C@H]1C(=O)N[C@@H](Cc1c[nH]c2ccccc12)C(=O)N[C@@H](Cc1c[nH]c2ccccc12)C(=O)N[C@H](C(=O)N[C@@H](Cc1c[nH]c2ccccc12)C(=O)N[C@@H](CC(C)C)C(=O)O)C(C)C [CV1]
effect on activator-mix-induced calcium flux in neutrophils ([1]; mix at 3 μM, 1 μM, 0.3 μM, MPR peptide 10 μM co-applied, n = 3): calcium flux suppression | inhibition of the migratory response to the activator peptide mix (neutrophils; MPR peptide 10 μM co-applied, n = 5): near complete inhibition | effect on activator-mix-triggered MMP-9 release [2]: attenuated

CSCC[C@H](N)C(=O)N[C@@H](Cc1ccc(O)cc1)C(=O)N[C@H](C(=O)N[C@@H](CCCCN)C(=O)N[C@@H](Cc1c[nH]c2ccccc12)C(=O)N1CCC[C@H]1C(=O)N[C@@H](Cc1c[nH]c2ccccc12)C(=O)N[C@@H](Cc1ccc(O)cc1)C(=O)N[C@H](C(=O)N[C@@H](Cc1c[nH]c2ccccc12)C(=O)N[C@@H](CC(C)C)C(=O)O)C(C)C)C(C)C [CV2*] (H-MYVKWPWYVWL-OH; N-terminus and C-terminus assumed)
binding affinity for FPR1, FPR2, and FPR3, fold lower than the other MPR peptides (FPR1 [3]): approximately 10 fold | calcium levels in FPR2 transfected cells (human FPR2): strongest | calcium response of FPR3-transfected cells (human FPR3): responded; also recorded: strongest; also recorded: FPR3 activation | calcium signal in dHL-60 cells [4]: positive calcium flux | neutrophil migration (neutrophils; MPR peptide 10 μM, 90 min, n = 3-5): triggers | ERK signaling via FPR1 [5]: triggers

CC[C@H](C)[C@H](NC(=O)[C@H](Cc1ccc(O)cc1)NC(=O)[C@H](CCC(N)=O)NC(=O)[C@@H](N)CCC(=O)O)C(=O)N[C@@H](CCCCN)C(=O)N[C@@H](Cc1c[nH]c2ccccc12)C(=O)N1CCC[C@H]1C(=O)N[C@@H](Cc1c[nH]c2ccccc12)C(=O)N[C@@H](Cc1ccc(O)cc1)C(=O)N[C@H](C(=O)N[C@@H](Cc1c[nH]c2ccccc12)C(=O)N[C@@H](CC(C)C)C(=O)O)C(C)C [CV3]
IC50 (FPR1 [6]): 3800 nM

CC[C@H](C)[C@H](NC(=O)[C@H](Cc1ccc(O)cc1)NC(=O)[C@H](Cc1c[nH]c2ccccc12)NC(=O)[C@@H]1CCCN1C(=O)[C@H](Cc1c[nH]c2ccccc12)NC(=O)[C@H](CCCCN)NC(=O)[C@@H](NC(=O)[C@H](Cc1ccc(O)cc1)NC(=O)[C@H](CCC(N)=O)NC(=O)[C@@H](N)CCC(=O)O)[C@@H](C)CC)C(=O)N[C@@H](Cc1c[nH]c2ccccc12)C(=O)N[C@@H](CC(C)C)C(=O)O [CV7]
Kd (FPR1 [3]): 14 nM | Kd (FPR2): 489 nM | Kd (FPR3): 347 nM | IC50 (FPR1 [6]; read-out: IC50 in the BRET assay): 5100 nM

DGYFKIYSKHTPIIV
non-activators of FPR1 and PMNs: FPR1 (FPR1 [7]): non-activators of FPR1 and PMNs | non-activators of FPR1 and PMNs: PMNs [1, 8]: non-activators of FPR1 and PMNs | Match with activator (region): Receptor (FPR1, FPR2, FPR3, PMN): FPR2 + FPR3

EPEDLPQGFSALEPL
significant PMN activators (group of the spike peptide pool screening) [1, 8]: significant PMN activators | Match with activator (region): Receptor (FPR1, FPR2, FPR3, PMN; […], it matches an identified peptide or IgG epitope of COVID-19 patients): PMN
